What was measured:
[1] = system: A2780 cells; assay: MTT viability assay, parental A2780 cells, with or without PTX; type: cell-based, human; details: for Increase of PTX toxicity against parental A2780 cells: 15 µM compound with or without 500 nM PTX, 48 h, MTT; for Mean % Survival / % Survival (individual sample): A2780 cells; for Mean % Survival / viability at 15 µM: mean of 8 or 12 samples; for % Survival (individual sample): single samples; for viability at 15 µM: Homo sapiens, A2780, A2780 cells, read-out: Mean % Survival
Method: The chemotherapeutic sensitive DU145 human prostate cancer cells and the multidrug resistant sub-line, DU145-TXR, were generous gifts from Dr. Evan Keller (University of Michigan, Ann Arbor, MI). The MDR, P-gp overexpressing DU145-TXR cells were maintained under positive selection pressure by supplementing complete medium with 10 nM paclitaxel (Acros Organics, NJ). In addition to the aforementioned cell lines, the chemotherapeutic sensitive A2780 ovarian cancer cells (93112519, Sigma) and the multidrug resistant A2780-ADR (93112520, Sigma) were maintained in complete RPMI media consisting of RPMI-1640 with L-glutamine, 10% fetal bovine serum (FBS; Corning), 100 U/mL penicillin and 100 μg/mL streptomycin in a humidified incubator at 37 °C and 5% CO2. The MDR, P-gp overexpressing A2780-ADR cell line was maintained under positive selection pressure by supplementing complete medium with 100 nM doxorubicin (Fisher Scientific, NJ). The non-cancerous HFL1 (human lung fibroblast) cell line cell line was a generous gift from Dr. Robert Harrod (Southern Methodist University, Dallas, TX) and was maintained in complete F12K media consisting of F12K with 10% fetal bovine serum, 100 U/mL penicillin, and 100 µg/mL streptomycin (Gibco). Flasks and 96 well plates that were used with the non-cancerous line HFL1 were pre-treated with 0.1 mg/ml Collagen Type 1 (Gibco) and rinsed with PBS (Fisher).
Culture of the DU145, DU145-TXR, and HFL1 cell lines was performed as described in [8]. Culture of the A2780 and A2780-ADR cell lines was performed as described in [9]. MTT assays were performed as described in [8] with minor modifications. LC-MS/MS accumulation assays were performed as described in {Nanayakkara, 2018 #173} [9] with some modifications. […] The inhibitor concentration was lowered to 15 µM here, as the goal of the study was to identify compounds that were effective in reversing MDR at low concentrations, and to determine if the expanded virtual-assisted methods improved on our first-draft attempt. Compounds 56–98 were pre-screened using Resazurin cell viability assays: cells were incubated with 15 µM compound with or without 500 nM PTX for 48 hours, after which cell survival was assessed similar to [39]. Data represent the mean of two separate experiments, with n = 3 samples per experiment (n = 6 total) (S4 Table). The top performing compounds from this initial screen were re-tested with MTT viability assays against DU145-TXR cells, as described below.
MTT assays measure the reduction of yellow, water soluble 3-(4,5-dimethylthiazol-2-yl)-2,5-diphenyltetrazolium bromide (MTT) to blue, insoluble formazan crystals by cellular reductase processes in living cells. Cells were trypsinized from monolayers and seeded in complete medium in 96 well plates. Cancerous cell lines (DU145, DU145-TXR, A2780, A2780-ADR) were seeded at 3,000 cells per well in complete RPMI medium. The non-cancerous HFL1 line was seeded at 4,000 cells per well in complete F12K medium, in collagen-treated plates (Collagen Type 1, Gibco). Cells were incubated with experimental compounds for 48 hours at 37 °C and 5% CO2 in a humidified incubator. At 48 hours, MTT was added (20 µL/well of 5 mg/mL MTT in PBS) to each well. After incubation for 4 hours, the media was removed, and the formazan crystals were dissolved in 100 µL DMSO per well. Plates containing the semi-adherent A2780 or A2780-ADR lines were spun at 1400 rpm for 3 minutes prior to aspiration of media, and the addition of DMSO. Plates were shaken for 10 minutes at 500 rpm on an Orbital shaker (LabDoctor from MidSci, St Louis, MO). The absorbance was measured at 570 nm using a Bio-Tek Cytation 5 (Bio-Tek, Winooski, VT). The measured absorbance value was correlated with the number of metabolically active cells in that well, corrected for absorbance of media. […]

[2] = biological target: T1, P-gp (Homo sapiens, UniProt P08183); assay: LC-MS/MS intracellular accumulation assay with or without tariquidar (P-gp transport substrate test) in DU145-TXR cells; type: in vitro ADME; details: for P-gp transport substrate assessment / Intracellular accumulation (normalized ratio of compound to internal standard), Trial 1, + TQR / Intracellular accumulation (normalized ratio of compound to internal standard), Trial 2, + TQR / Intracellular accumulation (normalized ratio of compound to internal standard), Trial 1, - TQR / Intracellular accumulation (normalized ratio of compound to internal standard), Trial 2, - TQR: DU145-TXR, 2.5 h; for P-gp transport substrate assessment: 5 µM compound with or without 500 nM tariquidar, LC-MS/MS; for Intracellular accumulation (normalized ratio of compound to internal standard), Trial 1, + TQR / Intracellular accumulation (normalized ratio of compound to internal standard), Trial 2, + TQR / Intracellular accumulation (normalized ratio of compound to internal standard), Trial 1, - TQR / Intracellular accumulation (normalized ratio of compound to internal standard), Trial 2, - TQR: 5 µM compound, mean ± SD, triplicate; for Intracellular accumulation (normalized ratio of compound to internal standard), Trial 1, + TQR / Intracellular accumulation (normalized ratio of compound to internal standard), Trial 2, + TQR: with 500 nM tariquidar; for Intracellular accumulation (normalized ratio of compound to internal standard), Trial 1, - TQR / Intracellular accumulation (normalized ratio of compound to internal standard), Trial 2, - TQR: without tariquidar; for P (- TQR vs + TQR), Trial 1 / P (- TQR vs + TQR), Trial 2: Student's T test of the mean; for Significance of accumulation with tariquidar, Trial 1 / Significance of accumulation with tariquidar, Trial 2: significant difference = likely P-gp transport substrate
T1 construct: The MDR, P-gp overexpressing DU145-TXR cells were maintained under positive selection pressure; endogenous in cells; host or cells: DU145-TXR (paclitaxel-resistant sub-line of DU145 human prostate cancer cells)
T1 sequence (P08183 whole entry): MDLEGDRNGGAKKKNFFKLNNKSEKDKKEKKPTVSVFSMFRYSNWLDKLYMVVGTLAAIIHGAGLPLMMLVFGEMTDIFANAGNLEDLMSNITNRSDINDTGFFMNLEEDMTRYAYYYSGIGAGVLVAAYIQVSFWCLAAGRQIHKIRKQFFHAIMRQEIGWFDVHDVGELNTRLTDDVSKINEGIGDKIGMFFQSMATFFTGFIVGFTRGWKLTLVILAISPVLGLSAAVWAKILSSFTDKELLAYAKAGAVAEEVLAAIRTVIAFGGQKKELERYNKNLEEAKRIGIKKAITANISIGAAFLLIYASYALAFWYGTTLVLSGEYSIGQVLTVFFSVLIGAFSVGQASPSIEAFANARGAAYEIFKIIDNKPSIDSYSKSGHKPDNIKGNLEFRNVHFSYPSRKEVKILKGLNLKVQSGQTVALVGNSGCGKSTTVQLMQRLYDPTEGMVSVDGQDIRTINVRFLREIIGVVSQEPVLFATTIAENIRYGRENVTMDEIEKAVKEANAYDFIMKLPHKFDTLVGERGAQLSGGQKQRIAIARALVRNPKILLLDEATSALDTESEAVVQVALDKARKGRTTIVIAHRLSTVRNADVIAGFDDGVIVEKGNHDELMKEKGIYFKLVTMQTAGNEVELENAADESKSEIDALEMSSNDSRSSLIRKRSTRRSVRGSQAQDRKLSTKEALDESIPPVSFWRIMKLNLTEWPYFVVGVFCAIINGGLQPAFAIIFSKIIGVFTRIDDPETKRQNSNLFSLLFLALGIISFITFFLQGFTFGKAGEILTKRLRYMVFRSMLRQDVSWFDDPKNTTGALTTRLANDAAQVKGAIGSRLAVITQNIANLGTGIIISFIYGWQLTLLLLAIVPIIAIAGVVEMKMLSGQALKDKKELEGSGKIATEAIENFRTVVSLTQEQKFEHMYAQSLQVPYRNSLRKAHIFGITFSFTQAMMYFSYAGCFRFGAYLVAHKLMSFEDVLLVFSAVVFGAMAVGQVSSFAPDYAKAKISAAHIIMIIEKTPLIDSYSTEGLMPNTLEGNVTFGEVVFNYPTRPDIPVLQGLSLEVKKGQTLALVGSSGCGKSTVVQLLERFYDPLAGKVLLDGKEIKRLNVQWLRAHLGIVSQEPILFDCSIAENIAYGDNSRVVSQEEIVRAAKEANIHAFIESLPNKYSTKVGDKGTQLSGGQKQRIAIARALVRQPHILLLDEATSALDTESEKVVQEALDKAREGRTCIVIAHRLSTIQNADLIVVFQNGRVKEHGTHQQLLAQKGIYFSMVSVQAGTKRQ
Method: DU145-TXR cells were seeded at 350,000 cells per well in 6-well plates in complete RPMI medium. […] A full sample of DAU was also prepared for quantitative analysis. […] Media was removed with a glass vacuum aspirator. Cells were re-suspended and washed in 2mL of ice-cold Hank’s Balanced Salt Solution (HBSS, Gibco), and spun again at 2400 rpm. Cell lysates were diluted in 600 µL of ice-cold HBSS, flash-frozen in liquid nitrogen, and stored at −80 °C until analysis. LC-MS/MS intracellular accumulation assays were performed in collaboration with the Pharmacology Core at the University of Texas Southwestern Medical Center (UTSW). […] This method allowed us to quantify the change – if any – in the relative amount of compound present in the samples when TQR was added. An increase in the relative amount of compound indicates enhanced intracellular retention that compound. […] The “Internal Standard” (IS) is a known substance added in a constant amount to each sample. The “Peak Area”, expressed as “counts”, describes the number of MS/MS spectra from the experimental compound and serves as a measure of its relative abundance. […] These values allow a comparison of the relative abundance of compound between the “- TQR” and “+ TQR” samples, and to test for statistically significant differences. LC-MS/MS quantification was performed as follows. Cell lysate was aliquoted into Eppendorf tubes. In contrast to [9], blank cell lysates were not spiked with varying concentrations of each compound to create a standard curve, since compound amounts were normalized to abundance of the internal standard. […] The supernatant was then transferred to an HPCL vial, and subsequently analyzed using LC-MS/MS using a Sciex 4000QTRAP mass spectrometer coupled to a Shimadzu Prominence LC. […] The column flow rate was 1.5 ml/min using an Agilent C18 XDB, 5 micron packing 50 × 4.6 mm column. […] A BSA standard curve was then prepared in water and mixed using the same ratio. […] The ratio of Analyte to Internal Standard was normalized to the lysate content for each individual sample. […] Statistical significance was determined using a Student’s T Test in GraphPad Prism. We aimed to identify P-gp inhibitors that are not transport substrates of the pump itself. […] To test these predictions in vitro, liquid chromatography with tandem mass spectrometry (LC-MS/MS) was used to assess the intracellular accumulation of experimental compounds as described in [9]. […] The relative intracellular accumulation of each experimental compound was then assessed using LC-MS/MS. […] The P-gp substrate and chemotherapeutic daunorubicin (DAU) was used as a positive control for P-gp-mediated transport.

Row | Structure (SMILES) | Increase of PTX toxicity against parental A2780 cells [1] | Mean % Survival ([1]; 15 µM compound + 500 nM PTX) | % Survival (individual sample) ([1]; 15 µM compound + 500 nM PTX) | % Survival (individual sample) ([1]; 15 µM compound alone) | viability at 15 µM ([1]; 15 µM compound alone) | P-gp transport substrate assessment [2] | Intracellular accumulation (normalized ratio of compound to internal standard), Trial 1, + TQR [2] | Intracellular accumulation (normalized ratio of compound to internal standard), Trial 2, + TQR [2] | Intracellular accumulation (normalized ratio of compound to internal standard), Trial 1, - TQR [2] | Intracellular accumulation (normalized ratio of compound to internal standard), Trial 2, - TQR [2] | P (- TQR vs + TQR), Trial 1 [2] | P (- TQR vs + TQR), Trial 2 [2] | Significance of accumulation with tariquidar, Trial 1 [2] | Significance of accumulation with tariquidar, Trial 2 [2]
1 | O=C(c1nc(-c2ccc3cc[nH]c3c2)no1)N1CCN(c2nsc3ccccc23)CC1 [Compound 70, O=C(N1CCN(CC1)c1nsc2ccccc12)c1nc(no1)-c1ccc2cc[nH]c2c1] | did not greatly increase the toxicity of PTX against the parental A2780 cells | 22.6% | 14% | 88% | 89.4% | unlikely to be transport substrates of P-gp | 0.93 ± 0.07 | 0.55 ± 0.15 | 0.93 ± 0.15 | 0.56 ± 0.11 | > 1 | 0.9 | N.S. (P > 0.05 = not significant (N.S.)) | N.S. (P > 0.05 = not significant (N.S.))
2 | Cc1onc(-c2ccccc2)c1-c1nnc(Cn2cnc3ccccc3c2=O)o1 [Compound 111, Cc1onc(c1-c1nnc(Cn2cnc3ccccc3c2=O)o1)-c1ccccc1] | did not greatly increase the toxicity of PTX against the parental A2780 cells | 14.4% | 13% | 102% | 94% | unlikely to be transport substrates of P-gp | 0.013 ± 0.004 | 0.013 ± 0.001 | 0.012 ± 0.002 | 0.011 ± 0.002 | 0.7 | 0.2 | N.S. (P > 0.05 = not significant (N.S.)) | N.S. (P > 0.05 = not significant (N.S.))
3 | COc1cccc(N2CCN(c3ccc4nnc(CCC(=O)Nc5ccc(F)c(F)c5)n4n3)CC2)c1 [Compound 101, COc1cccc(c1)N1CCN(CC1)c1ccc2nnc(CCC(=O)Nc3ccc(F)c(F)c3)n2n1] | did not greatly increase the toxicity of PTX against the parental A2780 cells | 14.3% |  | 64% | 91.9% | unlikely to be transport substrates of P-gp | 12.03 ± 2.45 | 22.88 ± 2.92 | 11.86 ± 1.16 | 21.17 ± 3.59 | 0.9 | 0.6 | N.S. (P > 0.05 = not significant (N.S.)) | N.S. (P > 0.05 = not significant (N.S.))

— PMC12349723, “Computationally accelerated identification of P-glycoprotein inhibitors” (PLOS One, 2025)
